This is an account of results in ChEMBL document CHEMBL1133057, “Synthesis and in vitro antibacterial activity of 3-[N-methyl-N-(3-methyl-1,3-thiazolium-2-yl)aminolmethyl cephalosporin derivatives” (2000).

One test deals with Salmonella typhimurium. Description: Compound was tested in vitro for its minimum inhibitory concentration by serial 2-fold agar dilution Muller Hinton method against Salmonella Typhimurium. The test is classed as functional, Salmonella enterica subsp. enterica serovar Typhimurium. To be noted: Salmonella enterica. Background: In agar dilution the substance is mixed into plates at graded concentrations.

Test [1] deals with Streptococcus pyogenes. Description: Compound was tested in vitro for its minimum inhibitory concentration by serial 2-fold agar dilution Muller Hinton method against Streptococcus pyogenes A 308. The test is classed as functional.
The subject of test [2] is Escherichia coli. The experiment in a line: Compound was tested in vitro for its minimum inhibitory concentration by serial 2-fold agar dilution Muller Hinton method against Escherichia coli O 55. The test is classed as functional.
Test [3] relates to Escherichia coli. Description: Compound was tested in vitro for its minimum inhibitory concentration by serial 2-fold agar dilution Muller Hinton method against Escherichia coli DC 0. The test is classed as functional.
The subject of test [4] is Pseudomonas aeruginosa. The experiment in a line: Compound was tested in vitro for its minimum inhibitory concentration by serial 2-fold agar dilution Muller Hinton method against Pseudomonas aeruginosa 9027. The test is classed as functional.
Test [5] deals with Enterobacter cloacae. The experiment in a line: Compound was tested in vitro for its minimum inhibitory concentration by serial 2-fold agar dilution Muller Hinton method against Enterobacter cloacae P99. The test is classed as functional.
The test system of test [6] is Enterobacter cloacae. Description: Compound was tested in vitro for its minimum inhibitory concentration by serial 2-fold agar dilution Muller Hinton method against Enterobacter cloacae 1321. The test is classed as functional.
The test system of test [7] is Streptococcus pyogenes. The experiment in a line: Compound was tested in vitro for its minimum inhibitory concentration by serial 2-fold agar dilution Muller Hinton method against Streptococcus pyogenes 8b. The test is classed as functional.
Test [8] deals with Streptococcus pyogenes. Description: Compound was tested in vitro for its minimum inhibitory concentration by serial 2-fold agar dilution Muller Hinton method against Streptococcus pyogenes A77. The test is classed as functional.
A further test has as its system Klebsiella aerogenes. The experiment in a line: Compound was tested in vitro for its minimum inhibitory concentration by serial 2-fold agar dilution Muller Hinton method against Klebsiella aerogenes 1522 E. The test is classed as functional.
Test [9] relates to Escherichia coli. The experiment in a line: Compound was tested in vitro for its minimum inhibitory concentration by serial 2-fold agar dilution Muller Hinton method against Escherichia coli 1507E. The test is classed as functional.
The test system of the next test is Klebsiella oxytoca. Description: Compound was tested in vitro for its minimum inhibitory concentration by serial 2-fold agar dilution Muller Hinton method against Klebsiella oxytoca 1082 E. The test is classed as functional.
Test [10] has as its system Pseudomonas aeruginosa. Description: Compound was tested in vitro for its minimum inhibitory concentration by serial 2-fold agar dilution Muller Hinton method against Pseudomonas aeruginosa 1771. The test is classed as functional.
In test [11] the test system is Staphylococcus aureus. Description: Compound was tested in vitro for its minimum inhibitory concentration by serial 2-fold agar dilution Muller Hinton method against Staphylococcus aureus 503. The test is classed as functional.
Test [12] concerns Pseudomonas aeruginosa. The experiment in a line: Compound was tested in vitro for its minimum inhibitory concentration by serial 2-fold agar dilution Muller Hinton method against Pseudomonas aeruginosa 1771 M. The test is classed as functional.
In test [13] the test system is Escherichia coli. The experiment in a line: Compound was tested in vitro for its minimum inhibitory concentration by serial 2-fold agar dilution Muller Hinton method against Escherichia coli DC 2. The test is classed as functional.
Test [14] concerns Pseudomonas aeruginosa. Description: Compound was tested in vitro for its minimum inhibitory concentration by serial 2-fold agar dilution Muller Hinton method against Pseudomonas aeruginosa 1592 E. The test is classed as functional.
Test [15] deals with Staphylococcus aureus. Description: Compound was tested in vitro for its minimum inhibitory concentration by serial 2-fold agar dilution Muller Hinton method against Staphylococcus aureus 285. The test is classed as functional.
For test [16], the system named is Escherichia coli. The experiment in a line: Compound was tested in vitro for its minimum inhibitory concentration by serial 2-fold agar dilution Muller Hinton method against Escherichia coli TEM. The test is classed as functional.
Test [17] deals with Staphylococcus aureus. The experiment in a line: Compound was tested in vitro for its minimum inhibitory concentration by serial 2-fold agar dilution Muller Hinton method against Staphylococcus aureus SG511. The test is classed as functional.

Values after ≈ are worked out from the molar mass of the structure shown.

For orientation: MIC means the smallest concentration in the dilution series that meets the test's criterion for growth inhibition. High values mean a need for much substance, low ones inhibition by little substance. Take `C=CCO/N=C(\C(=O)NC1C(=O)N2C(C(=O)[O-])=C(CN(C)c3scc(C)[n+]3C)CSC12)c1csc(N)n1` (stereo not given): the MIC came to 0.098 µg/mL (≈ 0.174 µM) against Salmonella typhimurium; 0.013 µg/mL (≈ 0.0231 µM) in the test on Streptococcus pyogenes [1]; 0.049 µg/mL (≈ 0.0869 µM) against Escherichia coli [2]; 0.195 µg/mL (≈ 0.346 µM) against Escherichia coli [3]; 25 µg/mL (≈ 44.4 µM) against Pseudomonas aeruginosa [4]; 25 µg/mL (≈ 44.4 µM) with Enterobacter cloacae [5]. Also, the MIC is 0.098 µg/mL (≈ 0.174 µM) against Enterobacter cloacae [6]; 25 µg/mL (≈ 44.4 µM) against Streptococcus pyogenes [7]; 0.007 µg/mL (≈ 0.0124 µM) in the test on Streptococcus pyogenes [8]; 0.098 µg/mL (≈ 0.174 µM) in the test with Klebsiella aerogenes; 0.195 µg/mL (≈ 0.346 µM) with Escherichia coli [9]; 12.5 µg/mL (≈ 22.2 µM) against Klebsiella oxytoca. In addition, the MIC against Pseudomonas aeruginosa [10] was 6.25 µg/mL (≈ 11.1 µM); in the test on Staphylococcus aureus [11], 0.195 µg/mL (≈ 0.346 µM); against Pseudomonas aeruginosa [12], 0.195 µg/mL (≈ 0.346 µM); in the test with Escherichia coli [13] it was 0.025 µg/mL (≈ 0.0444 µM); against Pseudomonas aeruginosa [14], 12.5 µg/mL (≈ 22.2 µM); with Staphylococcus aureus [15], 0.781 µg/mL (≈ 1.39 µM). The minimum inhibitory concentration (MIC) is 0.195 µg/mL (≈ 0.346 µM) against Escherichia coli [16] and 0.391 µg/mL (≈ 0.694 µM) in the test with Staphylococcus aureus [17].

As for `CO/N=C(\C(=O)NC1C(=O)N2C(C(=O)[O-])=C(CN(C)c3sc(C)c(C)[n+]3C)CSC12)c1csc(N)n1` (stereo not given), the MIC in the test on Salmonella typhimurium came to 0.098 µg/mL (≈ 0.178 µM); against Streptococcus pyogenes [1], 0.013 µg/mL (≈ 0.0236 µM); against Escherichia coli [2], 0.025 µg/mL (≈ 0.0453 µM); against Escherichia coli [3] it was 0.049 µg/mL (≈ 0.0888 µM); in the test on Pseudomonas aeruginosa [4], 50 µg/mL (≈ 90.6 µM); in the test on Enterobacter cloacae [5] it was 12.5 µg/mL (≈ 22.7 µM). In addition, the MIC is 0.013 µg/mL (≈ 0.0236 µM) against Enterobacter cloacae [6]; > 100 µg/mL against Streptococcus pyogenes [7]; 0.007 µg/mL (≈ 0.0127 µM) in the test with Streptococcus pyogenes [8]; 0.098 µg/mL (≈ 0.178 µM) with Klebsiella aerogenes; 0.049 µg/mL (≈ 0.0888 µM) in the test with Escherichia coli [9]; 6.25 µg/mL (≈ 11.3 µM) against Klebsiella oxytoca. Moreover, the MIC was found to be 25 µg/mL (≈ 45.3 µM) in the test on Pseudomonas aeruginosa [10]; 0.781 µg/mL (≈ 1.42 µM) with Staphylococcus aureus [11]; 1.56 µg/mL (≈ 2.83 µM) with Pseudomonas aeruginosa [12]; 0.098 µg/mL (≈ 0.178 µM) with Escherichia coli [13]; 50 µg/mL (≈ 90.6 µM) with Pseudomonas aeruginosa [14]; 1.56 µg/mL (≈ 2.83 µM) with Staphylococcus aureus [15]. Also, the MIC in the test with Escherichia coli [16] is 0.049 µg/mL (≈ 0.0888 µM); against Staphylococcus aureus [17] it was 1.56 µg/mL (≈ 2.83 µM).

Consider `CCO/N=C(\C(=O)NC1C(=O)N2C(C(=O)[O-])=C(CN(C)c3sc(C(=O)OCC)c(C)[n+]3C)CSC12)c1csc(N)n1` (stereo not given), for which the MIC in the test with Salmonella typhimurium came to 0.049 µg/mL (≈ 0.0786 µM); with Streptococcus pyogenes [1], 0.007 µg/mL (≈ 0.0112 µM); with Escherichia coli [2], 0.049 µg/mL (≈ 0.0786 µM); in the test with Escherichia coli [3], 0.098 µg/mL (≈ 0.157 µM); with Pseudomonas aeruginosa [4], 100 µg/mL (≈ 160 µM); against Enterobacter cloacae [5] it was 3.12 µg/mL (≈ 5.01 µM). Besides, the MIC with Enterobacter cloacae [6] was determined as 0.025 µg/mL (≈ 0.0401 µM); in the test on Streptococcus pyogenes [7] it was 25 µg/mL (≈ 40.1 µM); with Streptococcus pyogenes [8], 0.004 µg/mL (≈ 0.00641 µM); with Klebsiella aerogenes it was 0.049 µg/mL (≈ 0.0786 µM); against Escherichia coli [9] it was 0.098 µg/mL (≈ 0.157 µM); with Klebsiella oxytoca it was 6.25 µg/mL (≈ 10 µM). Further, the MIC amounted to 25 µg/mL (≈ 40.1 µM) against Pseudomonas aeruginosa [10]; 0.781 µg/mL (≈ 1.25 µM) with Staphylococcus aureus [11]; 1.56 µg/mL (≈ 2.51 µM) in the test on Pseudomonas aeruginosa [12]; 0.049 µg/mL (≈ 0.0786 µM) against Escherichia coli [13]; 50 µg/mL (≈ 80.2 µM) in the test on Pseudomonas aeruginosa [14]; 1.56 µg/mL (≈ 2.51 µM) with Staphylococcus aureus [15]. Besides, the MIC was 0.195 µg/mL (≈ 0.313 µM) in the test with Escherichia coli [16] and 1.56 µg/mL (≈ 2.51 µM) in the test on Staphylococcus aureus [17].

`CCOC(=O)c1sc(N(C)CC2=C(C(=O)[O-])N3C(=O)C(NC(=O)/C(=N\OC)c4csc(N)n4)C3SC2)[n+](C)c1C` (stereo not given): the MIC in the test on Salmonella typhimurium came out at 0.049 µg/mL (≈ 0.0804 µM); in the test on Streptococcus pyogenes [1], 0.007 µg/mL (≈ 0.0115 µM); in the test with Escherichia coli [2], 0.049 µg/mL (≈ 0.0804 µM); in the test on Escherichia coli [3], 0.098 µg/mL (≈ 0.161 µM); with Pseudomonas aeruginosa [4] it was 100 µg/mL (≈ 164 µM); in the test with Enterobacter cloacae [5], 3.12 µg/mL (≈ 5.13 µM). Moreover, the MIC turned out to be 0.025 µg/mL (≈ 0.041 µM) in the test on Enterobacter cloacae [6]; 25 µg/mL (≈ 41 µM) in the test on Streptococcus pyogenes [7]; 0.004 µg/mL (≈ 0.00656 µM) in the test on Streptococcus pyogenes [8]; 0.049 µg/mL (≈ 0.0804 µM) against Klebsiella aerogenes; 0.098 µg/mL (≈ 0.161 µM) with Escherichia coli [9]; 6.25 µg/mL (≈ 10.3 µM) against Klebsiella oxytoca. The MIC stood at 25 µg/mL (≈ 41 µM) in the test on Pseudomonas aeruginosa [10]; 0.781 µg/mL (≈ 1.28 µM) with Staphylococcus aureus [11]; 1.56 µg/mL (≈ 2.56 µM) in the test on Pseudomonas aeruginosa [12]; 0.049 µg/mL (≈ 0.0804 µM) against Escherichia coli [13]; 50 µg/mL (≈ 82 µM) in the test on Pseudomonas aeruginosa [14]; 1.56 µg/mL (≈ 2.56 µM) in the test with Staphylococcus aureus [15]. Moreover, the MIC amounted to 0.195 µg/mL (≈ 0.32 µM) with Escherichia coli [16] and 1.56 µg/mL (≈ 2.56 µM) against Staphylococcus aureus [17].

Turning to `CO/N=C(\C(=O)N[C@@H]1C(=O)N2C(C(=O)[O-])=C(C[n+]3cccc4c3CCC4)CS[C@H]12)c1csc(N)n1` [CEFPIROME], the MIC came to 0.025 µg/mL (≈ 0.0486 µM) against Salmonella typhimurium; 0.007 µg/mL (≈ 0.0136 µM) with Streptococcus pyogenes [1]; 0.025 µg/mL (≈ 0.0486 µM) in the test with Escherichia coli [2]; 0.013 µg/mL (≈ 0.0253 µM) with Escherichia coli [3]; 3.12 µg/mL (≈ 6.07 µM) against Pseudomonas aeruginosa [4]; 3.12 µg/mL (≈ 6.07 µM) against Enterobacter cloacae [5]. Further, the MIC with Enterobacter cloacae [6] amounted to 0.013 µg/mL (≈ 0.0253 µM); in the test on Streptococcus pyogenes [7], 1.56 µg/mL (≈ 3.04 µM); in the test on Streptococcus pyogenes [8], 0.007 µg/mL (≈ 0.0136 µM); in the test with Klebsiella aerogenes, 0.025 µg/mL (≈ 0.0486 µM); in the test on Escherichia coli [9], 0.025 µg/mL (≈ 0.0486 µM); against Klebsiella oxytoca, 1.56 µg/mL (≈ 3.04 µM). Besides, the MIC worked out at 0.781 µg/mL (≈ 1.52 µM) in the test with Pseudomonas aeruginosa [10]; 0.098 µg/mL (≈ 0.19 µM) with Staphylococcus aureus [11]; 0.391 µg/mL (≈ 0.76 µM) with Pseudomonas aeruginosa [12]; 0.049 µg/mL (≈ 0.0952 µM) with Escherichia coli [13]; 1.56 µg/mL (≈ 3.04 µM) against Pseudomonas aeruginosa [14]; 0.781 µg/mL (≈ 1.52 µM) in the test on Staphylococcus aureus [15]. Moreover, the MIC against Escherichia coli [16] was determined as 0.049 µg/mL (≈ 0.0952 µM); with Staphylococcus aureus [17], 0.391 µg/mL (≈ 0.76 µM).
